Experimental data reported in PMC3849818 (Journal of medicinal chemistry, 2013).

How the values were obtained:
[1] = molecular target: T1, OX2 receptor (Homo sapiens, UniProt O43614); test: OX2 calcium mobilization functional assay; format: cell-based
T1 sequence (O43614 1-444): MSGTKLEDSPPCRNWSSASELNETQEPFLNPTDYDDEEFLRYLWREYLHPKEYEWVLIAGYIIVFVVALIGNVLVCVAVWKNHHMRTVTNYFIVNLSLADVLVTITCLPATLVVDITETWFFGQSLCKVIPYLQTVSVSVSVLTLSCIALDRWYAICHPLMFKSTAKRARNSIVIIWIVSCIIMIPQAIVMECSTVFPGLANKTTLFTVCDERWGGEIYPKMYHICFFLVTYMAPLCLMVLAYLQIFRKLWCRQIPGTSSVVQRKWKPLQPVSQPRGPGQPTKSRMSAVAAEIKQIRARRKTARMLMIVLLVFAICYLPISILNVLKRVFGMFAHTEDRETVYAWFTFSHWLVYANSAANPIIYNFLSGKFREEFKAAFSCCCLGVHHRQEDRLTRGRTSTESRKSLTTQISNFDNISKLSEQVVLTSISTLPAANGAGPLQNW

[2] = molecular target: T2, orexin 1 (OX1) receptor (Homo sapiens, UniProt O43613); test: OX1 calcium mobilization functional assay; format: cell-based; settings: for OX2/OX1: ratio of Ke values
T2 sequence (O43613 1-425): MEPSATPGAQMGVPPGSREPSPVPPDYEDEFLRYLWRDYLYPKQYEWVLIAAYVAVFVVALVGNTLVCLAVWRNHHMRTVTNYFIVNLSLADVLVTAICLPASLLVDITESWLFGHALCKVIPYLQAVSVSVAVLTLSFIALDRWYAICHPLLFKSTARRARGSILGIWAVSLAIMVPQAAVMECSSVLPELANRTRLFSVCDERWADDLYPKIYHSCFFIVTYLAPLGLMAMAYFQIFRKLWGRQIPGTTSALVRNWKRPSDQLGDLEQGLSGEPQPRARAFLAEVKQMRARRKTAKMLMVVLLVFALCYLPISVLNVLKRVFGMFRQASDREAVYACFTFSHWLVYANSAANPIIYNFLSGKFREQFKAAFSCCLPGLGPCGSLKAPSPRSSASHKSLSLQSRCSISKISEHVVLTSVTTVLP

Compound	Kd [1] [µM]	further results
COc1cc2c(cc1O)C(Cc1ccc(OC)c(OC)c1)N(CC(=O)NCc1ccccc1)CC2 (stereo not shown) [Compound 11, N-benzyl-2-{1-[(3,4-dimethoxyphenyl)methyl]-7-hydroxy-6-methoxy-1,2,3,4-tetrahydroisoquinolin-2-yl}acetamide]	5.74 ± 0.096	
CCOc1cc2c(cc1OC)CCN(CC(=O)NCc1ccccc1)C2Cc1ccc(OC)c(OC)c1 (stereo not shown) [Compound 12, N-benzyl-2-{1-[(3,4-dimethoxyphenyl)methyl]-7-ethoxy-6-methoxy-1,2,3,4-tetrahydroisoquinolin-2-yl}acetamide]	> 10	OX2/OX1 [2]: >333
CCCOc1cc2c(cc1OC)CCN(CC(=O)NCc1ccccc1)C2Cc1ccc(OC)c(OC)c1 (stereo not shown) [Compound 13, N-benzyl-2-{1-[(3,4-dimethoxyphenyl)methyl]-6-methoxy-7-propoxy-1,2,3,4-tetrahydroisoquinolin-2-.yl}acetamide]	> 10	OX2/OX1 [2]: >578
CCCCOc1cc2c(cc1OC)CCN(CC(=O)NCc1ccccc1)C2Cc1ccc(OC)c(OC)c1 (stereo not shown) [Compound 14, N-benzyl-2-{7-butoxy-1-[(3,4-dimethoxyphenyl)methyl]-6-methoxy-1,2,3,4-tetrahydroisoquinolin-2-yl}acetamide]	1.89 ± 0.48	
CCCCCCOc1cc2c(cc1OC)CCN(CC(=O)NCc1ccccc1)C2Cc1ccc(OC)c(OC)c1 (stereo not shown) [Compound 15, N-benzyl-2-{1-[(3,4-dimethoxyphenyl)methyl]-7-(hexyloxy)-6-methoxy-1,2,3,4-tetrahydroisoquinolin-2-yl}acetamide]	> 10	OX2/OX1 [2]: >31.7
COc1ccc(CC2c3cc(OCCC(C)C)c(OC)cc3CCN2CC(=O)NCc2ccccc2)cc1OC (stereo not shown) [Compound 16, N-benzyl-2-{1-[(3,4-dimethoxyphenyl)methyl]-6-methoxy-7-(3-methylbutoxy)-1,2,3,4-tetrahydroisoquinolin-2-yl}acetamide]	3.92 ± 1.2	
COc1ccc(CC2c3cc(OCC4CCCCC4)c(OC)cc3CCN2CC(=O)NCc2ccccc2)cc1OC (stereo not shown) [Compound 17, N-benzyl-2-[7-(cyclohexylmethoxy)-1-[(3,4-dimethoxyphenyl)methyl]-6-methoxy-1,2,3,4-tetrahydroisoquinolin-2-yl]acetamide]		OX1 activity, bound stated ([2]; no activity up to the stated concentration): > 10 µM
COc1ccc(CC2c3cc(OCCCCOc4ccccc4)c(OC)cc3CCN2CC(=O)NCc2ccccc2)cc1OC (stereo not shown) [Compound 24, N-benzyl-2-{1-[(3,4-dimethoxyphenyl)methyl]-6-methoxy-7-(4-phenoxybutoxy)-1,2,3,4-tetrahydroisoquinolin-2-yl}acetamide]	> 10	OX2/OX1 [2]: >230
CCCC(=O)Oc1cc2c(cc1OC)CCN(CC(=O)NCc1ccccc1)C2Cc1ccc(OC)c(OC)c1 (stereo not shown) [Compound 25, 2-[(benzylcarbamoyl)methyl]-1-[(3,4-dimethoxyphenyl)methyl]-6-methoxy-1,2,3,4-tetrahydroisoquinolin-7-yl butanoate]	> 10	OX2/OX1 [2]: >127
COc1ccc(CC2c3cc(OS(C)(=O)=O)c(OC)cc3CCN2CC(=O)NCc2ccccc2)cc1OC (stereo not shown) [Compound 26, 2-[(benzylcarbamoyl)methyl]-1-[(3,4-dimethoxyphenyl)methyl]-6-methoxy-1,2,3,4-tetrahydroisoquinolin-7-yl methanesulfonate]	2.17 ± 0.79	
COc1ccc(CC2c3cc(OS(=O)(=O)C(F)(F)F)c(OC)cc3CCN2CC(=O)NCc2ccccc2)cc1OC (stereo not shown) [Compound 27, 2-[(benzylcarbamoyl)methyl]-1-[(3,4-dimethoxyphenyl)methyl]-6-methoxy-1,2,3,4-tetrahydroisoquinolin-7-yl trifluoromethanesulfonate]	> 10	OX2/OX1 [2]: >1000
COc1ccc(CC2c3cc(OS(=O)(=O)c4ccccc4)c(OC)cc3CCN2CC(=O)NCc2ccccc2)cc1OC (stereo not shown) [Compound 29, 2-[(benzylcarbamoyl)methyl]-1-[(3,4-dimethoxyphenyl)methyl]-6-methoxy-1,2,3,4-tetrahydroisoquinolin-7-yl benzenesulfonate]	2.9 ± 0.191	
COc1ccc(CC2c3cc(OC)c(OC)cc3CCN2CC(=O)N2CCc3ccccc3C2)cc1OC (stereo not shown) [Compound 35, 2-{1-[(3,4-dimethoxyphenyl)methyl]-6,7-dimethoxy-1,2,3,4-tetrahydroisoquinolin-2-yl}-1-(1,2,3,4-tetrahydroisoquinolin-2-yl)ethan-1-one]	9 ± 0.76	
COc1ccc(CC2c3cc(OC)c(OC)cc3CCN2CC(=O)N2CCCC(c3ccccc3)C2)cc1OC (stereo not shown) [Compound 36, 2-{1-[(3,4-dimethoxyphenyl)methyl]-6,7-dimethoxy-1,2,3,4-tetrahydroisoquinolin-2-yl}-1-(3-phenylpiperidin-1-yl)ethan-1-one]	9.03 ± 3.8	
COc1ccc(CC2c3cc(OC)c(OC)cc3CCN2CC(=O)Nc2cccc3ccccc23)cc1OC (stereo not shown) [Compound 41, 2-{1-[(3,4-dimethoxyphenyl)methyl]-6,7-dimethoxy-1,2,3,4-tetrahydroisoquinolin-2-yl}-N-(naphthalen-1-yl)acetamide]		fold less potent than the benzyl compound (OX1) ([2]; relative to compound 6): around 3.6 fold
COc1ccc(CC2c3cc(OC)c(OC)cc3CCN2CC(=O)Nc2ccccc2-c2ccccc2)cc1OC (stereo not shown) [Compound 44, 2-{1-[(3,4-dimethoxyphenyl)methyl]-6,7-dimethoxy-1,2,3,4-tetrahydroisoquinolin-2-yl}-N-(2-phenylphenyl)acetamide]	1.76 ± 0.37	
COc1ccc(CC2c3cc(OC)c(OC)cc3CCN2CC(=O)NC2CCCc3ccccc32)cc1OC (stereo not shown) [Compound 47, 2-{1-[(3,4-dimethoxyphenyl)methyl]-6,7-dimethoxy-1,2,3,4-tetrahydroisoquinolin-2-yl}-N-(1,2,3,4-tetrahydronaphthalen-1-yl)acetamide]	0.655 ± 0.19	
COc1ccc(CC2c3cc(OC)c(OC)cc3CCN2CC(=O)NCc2ccc(Cl)cc2)cc1OC (stereo not shown) [Compound 51, N-[(4-chlorophenyl)methyl]-2-{1-[(3,4-dimethoxyphenyl)methyl]-6,7-dimethoxy-1,2,3,4-tetrahydroisoquinolin-2-yl}acetamide]	2.27 ± 0.11	
COc1ccc(CC2c3cc(OC)c(OC)cc3CCN2CC(=O)NCc2ccc(F)cc2)cc1OC (stereo not shown) [Compound 52, 2-{1-[(3,4-dimethoxyphenyl)methyl]-6,7-dimethoxy-1,2,3,4-tetrahydroisoquinolin-2-yl}-N-[(4-fluorophenyl)methyl]acetamide]	3.46 ± 1	
COc1ccc(CC2c3cc(OC)c(OC)cc3CCN2CC(=O)NCc2ccc(NC(C)=O)cc2)cc1OC (stereo not shown) [Compound 57, 2-{1-[(3,4-dimethoxyphenyl)methyl]-6,7-dimethoxy-1,2,3,4-tetrahydroisoquinolin-2-yl}-N-[(4-acetamidophenyl)methyl]acetamide]		OX1 activity in words ([2]; no concentration given): total loss of OX1 activity
CCCCCCNC(=O)Nc1ccc(CNC(=O)CN2CCc3cc(OC)c(OC)cc3C2Cc2ccc(OC)c(OC)c2)cc1 (stereo not shown) [Compound 59, 2-{1-[(3,4-dimethoxyphenyl)methyl]-6,7-dimethoxy-1,2,3,4-tetrahydroisoquinolin-2-yl}-N-({4-[(hexylcarbamoyl)amino]phenyl}methyl)acetamide]	2.44 ± 0.67	
CCCCCCCNC(=O)CN1CCc2cc(OC)c(OC)cc2C1Cc1ccc(OC)c(OC)c1 (stereo not shown) [Compound 60, 2-{1-[(3,4-dimethoxyphenyl)methyl]-6,7-dimethoxy-1,2,3,4-tetrahydroisoquinolin-2-yl}-N-heptylacetamide]	2.31 ± 0.54	
